According to patent publication US11076595B2, “1-(n,n-disubstituted carbamoyl) 4-(substituted sulfonyl)triazolin-5-one derivative, 4-(n,n-disubstituted carbamoyl) 1-(substituted sulfonyl)triazolin-5-one derivative, and herbicide containing said derivative as active ingredient” (HOKKO CHEMICAL INDUSTRY CO., LTD., priority 2017, dated 2021):

Assays:
Type in all cases: in vivo
[1] = tested on: Lindernia pyxidaria; experiment: Test Example 12: herbicidal effect test by treatment during growing period in paddy field; conditions: 120 g/10a; treatment seven days after sowing in flooded paddy pot; assessed 14 days after treatment
In short: (§1)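 Seeds (30 per species) are sown shallowly into fertilized, puddled paddy soil kept under ~3 cm of water in a greenhouse. One week later, compound formulated as an emulsifiable concentrate is applied dropwise to the water at 120 g a.i./10 are. After 14 days, dry weights give percent suppression against untreated controls.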

[2] = tested on: Monochoria vaginalis; experiment: as above; conditions: 120 g/10a; treatment seven days after sowing in flooded paddy pot; assessed 14 days after treatment
In short: as §1

[3] = tested on: Echinochloa crus-galli; experiment: as above; conditions: 120 g/10a; treatment seven days after sowing in flooded paddy pot; assessed 14 days after treatment
In short: as §1

[4] = tested on: Scirpus juncoides; experiment: as above; conditions: 120 g/10a; treatment seven days after sowing in flooded paddy pot; assessed 14 days after treatment
In short: as §1

[5] = tested on: Chenopodium album; experiment: Test Example 14: herbicidal effect test by foliage treatment in upland field; conditions: 7 days after sowing, 120 g/10a, 14 days after treatment
In short: (§2)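 Weeds sown 20 seeds each in alluvial field soil; 7 days after sowing, water-diluted emulsifiable concentrate sprayed at 100 L per 10 are, 120 g active ingredient per 10 are. Suppression rate (%) from dry weight versus untreated plots at 14 days, two replicates.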

[6] = tested on: crabgrass; experiment: as above; conditions: 7 days after sowing, 120 g/10a, 14 days after treatment
In short: as §2

[7] = tested on: Echinochloa crus-galli; experiment: as above; conditions: 7 days after sowing, 120 g/10a, 14 days after treatment
In short: as §2

[8] = tested on: Amaranthus viridis; experiment: as above; conditions: 7 days after sowing, 120 g/10a, 14 days after treatment
In short: as §2

[9] = tested on: Lindernia pyxidaria; experiment: Test Example 11: herbicidal effect test by soil treatment in paddy field; conditions: 120 g/10a active ingredient, 14 days after treatment
In short: (§3)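 Pre-emergence paddy test, 120 g a.i./10 are, emulsifiable concentrate diluted in water and added dropwise to ~3 cm flood water right after sowing (30 seeds/species, 0–1 cm depth, fertilized puddled soil). Greenhouse; 2 replicates; dry-weight suppression (%) vs untreated, day 14.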

[10] = tested on: Monochoria vaginalis; experiment: as above; conditions: 120 g/10a active ingredient, 14 days after treatment
In short: as §3

[11] = tested on: Echinochloa crus-galli; experiment: as above; conditions: 120 g/10a active ingredient, 14 days after treatment
In short: as §3

[12] = tested on: Scirpus juncoides; experiment: as above; conditions: 120 g/10a active ingredient, 14 days after treatment
In short: as §3

[13] = tested on: Chenopodium album; experiment: Test Example 13: herbicidal effect test by soil treatment in upland field; conditions: 120 g/10a, 14 days after treatment
In short: (§4)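 Pre-emergence soil spray, 1 d post-sowing; emulsifiable concentrate in water, 100 L/10 are, 120 g a.i./10 are. Pots 36 cm^2, alluvial soil, 20 seeds/species in top 1 cm. n=2; read 14 d; suppression % = (1 − treated/untreated mean dry weight) × 100.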

[14] = tested on: Echinochloa crus-galli; experiment: as above; conditions: 120 g/10a, 14 days after treatment
In short: as §4

[15] = tested on: Amaranthus viridis; experiment: as above; conditions: 120 g/10a, 14 days after treatment
In short: as §4

[16] = tested on: crabgrass; experiment: as above; conditions: 120 g/10a, 14 days after treatment
In short: as §4

| Compound | Weed suppression rate (%) Lindemia pyxidaria [1] | Weed suppression rate (%) Monochoria vaginalis [2] | Weed suppression rate (%) Echinochloa crus-galli [3] | Weed suppression rate (%) Scirpus juncoides [4] | herbicidal effect, Chenopodium album [5] | herbicidal effect, Crabgrass [6] | herbicidal effect, Echinochloa crus-galli [7] | herbicidal effect, Amaranthus viridis [8] | Weed suppression rate (%) Lindemia pyxidaria [9] | Weed suppression rate (%) Monochoria vaginalis [10] | Weed suppression rate (%) Echinochloa crus-galli [11] | Weed suppression rate (%) Scirpus juncoides [12] | herbicidal effect, Chenopodium album [13] | herbicidal effect, Echinochloa crus-galli [14] | herbicidal effect, Amaranthus viridis [15] | herbicidal effect, Crabgrass [16] |
| --- | --- | --- | --- | --- | --- | --- | --- | --- | --- | --- | --- | --- | --- | --- | --- | --- |
| CC(C)N(C(=O)n1cnn(S(=O)(=O)c2ccc(F)cc2)c1=O)c1ccc(F)cc1F [Compound 11-475] | 90% | 90% | 90% | 90% | 40% | 90% | 70% | 40% | 90% | 90% | 100% | 90% | 90% | 100% | 80% | 100% |
| Cc1ccc(S(=O)(=O)n2ncn(C(=O)N(c3ccccc3)C(C)C)c2=O)cc1 [Compound 11-626] | 80% | 80% | 90% | 90% | 90% | 90% | 40% | 60% | 90% | 70% | 100% | 90% | 70% | 90% | 50% | 90% |
| CC(C)N(C(=O)n1cnn(S(=O)(=O)C(C)C)c1=O)c1ccc(Cl)cn1 [Compound 11-85] | 90% | 90% | 90% | 70% | 80% | 90% | 80% | 90% | 80% | 80% | 90% | 90% | 60% | 100% | 90% | 100% |
| CC(C)N(C(=O)n1cnn(S(=O)(=O)C2CC2)c1=O)c1c(F)cccc1F [Compound 11-191] | 90% | 90% | 100% | 90% | 60% | 100% | 100% | 60% | 100% | 90% | 100% | 100% | 70% | 100% | 70% | 100% |
| CC(C)N(C(=O)n1cnn(S(=O)(=O)N(C)C)c1=O)c1ccc(F)cc1 [Compound 11-1056] | 80% | 80% | 90% | 90% | 80% | 90% | 80% | 90% | 80% | 80% | 90% | 90% | 80% | 80% | 90% | 90% |
| CC(C)N(C(=O)n1cnn(S(=O)(=O)N2CCCCC2)c1=O)c1ccc(F)cc1F [Compound 11-1102] | 70% | 80% | 100% | 90% | 80% | 90% | 80% | 90% | 100% | 90% | 100% | 90% | 100% | 100% | 90% | 100% |
| Cc1ccc(S(=O)(=O)n2ncn(C(=O)N(c3ccc(F)cc3Cl)C(C)C)c2=O)cc1 [Compound 11-644] | 80% | 80% | 90% | 90% | 80% | 90% | 80% | 90% | 80% | 80% | 90% | 90% | 80% | 80% | 90% | 90% |
